Consider 13 compounds from patent US20240100018A1, “COMPOUNDS FOR THE TREATMENT OF A DISEASE OR DISORDER, METHODS FOR IDENTIFYING SAID COMPOUNDS” (priority 2021, published 2024).

In data set [1] the test system is HEK293T cells transfected with ACE2 and TMPRSS2, SARS-CoV-2 spike-mediated cell fusion. Briefly: cells. Type of data set: cell-based, human.
The conditions of data set [2]: human, in vivo; cited from earlier work.
The test system of data set [3] is SARS-CoV-2 Isolate USA-WA1/2020. In words: In vitro viral inhibition assay in Vero-E6 cells (spike immunofluorescence). The format is cell-based.
Data set [4] has as its system Vero-E6 cells.
Data set [5] deals with Vero-E6 cells. In words: Toxicity by reduced cell count in the viral inhibition assay. The settings on record: for host cell toxicity (reduced cell count): concentration not given.
Data set [6] has as its system Calu-3 lung cancer cells, SARS-CoV-2 spike-mediated cell fusion. Type of data set: cell-based, human.
For the next data set, the system named is Covid-19. The settings on record: in vivo; cited from earlier work.
Setting [7] is: summary call Active / Not Tested, cell line not given.
[8] abbreviates: summary call Active / Not Tested.
[9] abbreviates: HEK293 syncytia assay, dose-response.

One may read the EC50 as the concentration giving half of the maximal effect. The low end stands for higher potency in that assay, the high end for lower potency in that assay. As usually defined, the Cmax is the peak of the concentration-time curve.

Entries after “also recorded” stand apart in the source; their conditions may differ. Structures can show the parent of a compound that is named as a salt. Where two headings read alike, the source gives them in different places.

`C[C@]1(O)C[C@@H](c2nc(-c3ccc4ccc(-c5ccccc5)nc4c3)c3c(N)nccn32)C1` [linsitinib, Linsitinib]: the figures for the “inhibition of syncytia formation (cell fusion)” value (“inhibition of syncytia formation” below) in data set [1], in data set [1] (listed as Linsitinib) and in data set [1] (listed as linisitinib) were “impaired viral entry; also recorded: particularly effective; also recorded: most potent agent; also recorded: dose-responsive inhibition of syncytia formation; also recorded: complete inhibition of cell fusion; also recorded: substantially reduced spike-protein-dependent syncytia formation”, “highest inhibitory activity” and “highest inhibitory activity”, respectively. In addition, the EC50 in data set [1] (Homo sapiens, HEK-293T, cell fusion (syncytia) assay) was found to be 25 µM. Also, in data set [1] (setting [7]), the “Syncytia Assay” value is recorded as “Active”. The Cmax in data set [2] was 5 to 10 µM.

As to `Cc1cc(C)c(/C=C2\C(=O)Nc3ccccc32)[nH]1` [semaxanib, Semaxanib], in data set [1] (setting [7]), the “Syncytia Assay” value is reported as “Active”.

Turning to `CCC(=O)N1CCN(c2ccc(-n3c(=O)ccc4cnc5ccc(-c6cnc7ccccc7c6)cc5c43)cc2C(F)(F)F)CC1` [torin-1, Torin-1], the “antiviral activity / inhibition of SARS-CoV-2 infection in Vero-E6 cells” value (“antiviral activity / inhibition” for short) in data set [3] ([…], concentration not stated) is listed as “Qualitatively similar results to salmeterol”. Further, the “Viral Entry Assay” value in data set [3] (setting [8]) is listed as “Active”. In addition, the “host cell toxicity (reduced cell count)” value with Vero-E6 cells [4] was “dose-limiting toxicity as evidenced by reduced cell count”. Also, the toxicity entry with Vero-E6 cells [5] (100 nM) is “toxic”.

For `N=C(N)c1ccc2cc(OC(=O)c3ccc(N=C(N)N)cc3)ccc2c1` [nafamostat], the “inhibition of syncytia formation” value in data set [6] was “prevented syncytia formation”. In the data set with HEK293 cells (setting [9]), the “cell loss / cytotoxicity (total GFP)” value is “did not mirror cell loss”.

As for `OCc1cc(C(O)CNCCCCCCOCCCCc2ccccc2)ccc1O` (centres unmarked) [salmeterol, Salmeterol], in data set [3], the “Viral Entry Assay” value is on record as “Active”, the “antiviral activity / inhibition” value was “exhibited antiviral activities; also recorded: prevented viral infection; also recorded: particularly strong inhibitory activities; also recorded: particularly effective; also recorded: can block in vitro SARS-CoV-2 replication at clinically relevant concentrations”, the “antiviral effect on spike-expressing cell population” value was “reduced the median of the spike-expressing population; also recorded: greater antiviral effect on the entire population” and the spike-positive cells is reported as around 14%. In addition, in data set [1], the “Syncytia Assay” value is listed as “Active”; the “inhibition of syncytia formation” value was “had inhibitory activity in the cell fusion assay and full and not borne out by syncytia formation experiments with either HEK293T or Calu-3 cells, except at high concentration”; the “potency in the cell fusion assay relative to the viral infection assay” value is recorded as “at least two orders of magnitude less potent”. Further, in data set [6], the “inhibition of syncytia formation” value is “not borne out by syncytia formation experiments with either HEK293T or Calu-3 cells, except at high concentration”. In the data set with Vero-E6 cells [4], the “host cell toxicity (reduced cell count)” value is listed as “without apparent host cell toxicity”. In addition, the “cell loss / cytotoxicity (total GFP)” value in the data set with HEK293 cells is “mirrored by cell loss”.

As to `CC(=O)c1c(O)c(C)c(O)c(Cc2c(O)c3c(c(C(=O)/C=C/c4ccccc4)c2O)OC(C)(C)C=C3)c1O` [rottlerin, Rottlerin], in data set [3] ([…], concentration not stated, listed as Rottlerin), the “antiviral activity / inhibition” value is on record as “inhibited viral infection”. In data set [3] (setting [8]), the “Viral Entry Assay” value was “Active”. Besides, the “host cell toxicity (reduced cell count)” value with Vero-E6 cells [5] (Vero-E6) is recorded as “dose-limiting toxicity”; in the data set with Vero-E6 cells [5] (Vero-E6, listed as R077), “dose-limiting toxicity as evidenced by reduced cell count”.

Regarding Dec-RVKR-CMK, the “inhibition of syncytia formation” value is recorded as “prevented syncytia formation; also recorded: similarly potent in both cell types; also recorded: dose-responsive inhibition of syncytia formation” in data set [1] (HEK293T acceptor cells with ACE2 and TMPRSS2, 1-2 h pretreatment, 4 h co-culture); “prevented syncytia formation; also recorded: seemingly larger maximal magnitude of inhibition” in data set [6] (Calu-3 acceptor cells, 1-2 h pretreatment, 4 h co-culture). Also, the “cell loss / cytotoxicity (total GFP)” value with HEK293 cells (setting [9]) was “did not mirror cell loss”.

Consider `CN(C)CCC(c1ccc(Br)cc1)c1ccccn1` (centres unmarked) [brompheniramine, Brompheniramine], for which the “inhibition of syncytia formation” value in data set [1] is reported as “impaired viral entry; also recorded: to a lesser extent, brompheniramine, showed dose-responsive inhibition of syncytia formation; also recorded: inhibited syncytia formation”. In addition, the “Syncytia Assay” value in data set [1] (setting [7]) is “Active”. In addition, in the data set on HEK293 cells (setting [9]), the “cell loss / cytotoxicity (total GFP)” value is “did not mirror cell loss”.

As to `O=C1[C@H](CC[C@H](O)c2ccc(F)cc2)[C@@H](c2ccc(O)cc2)N1c1ccc(F)cc1` [ezetimibe, Ezetimibe], the “reduction of spike protein-expressing populations” value in data set [3] (25 μM (highest concentration studied), Vero-E6) is “reduced spike protein-expressing populations only at the highest concentration studied”. Also, in data set [3] (setting [8]), the “Viral Entry Assay” value is listed as “Active”. Besides, in data set [1], the “activity in the cell fusion assay” value was “inactive”; the “inhibition of syncytia formation” value was “impaired viral entry; also recorded: had inhibitory activity in the cell fusion assay; also recorded: inhibited both viral infection and cell fusion”; the “potency in the cell fusion assay relative to the viral infection assay” value is “lower potency in the cell fusion assay”. Besides, the “Syncytia Assay” value in data set [1] (setting [7]) was “Active”. Further, the cell numbers entry in the data set with Vero-E6 cells [5] (25 μM, Vero-E6) was “reduction in cell numbers was also observed”.

On to `CN(C)CCCN1c2ccccc2CCc2ccccc21` [imipramine, Imipramine hydrochloride], for which the “Syncytia Assay” value in data set [1] is given as “Active”. Moreover, the “inhibition of syncytia formation” value in data set [1] (hydrochloride) is recorded as “impaired viral entry; also recorded: inhibited syncytia formation”.

Turning to `CO[C@H]1C[C@@H]2CC[C@@H](C)[C@@](O)(O2)C(=O)C(=O)N2CCCC[C@H]2C(=O)O[C@H]([C@H](C)C[C@@H]2CC[C@@H](OC(=O)C(C)(CO)CO)[C@H](OC)C2)CC(=O)[C@H](C)/C=C(\C)[C@@H](O)[C@@H](OC)C(=O)[C@H](C)C[C@H](C)/C=C/C=C/C=C/1C` [temsirolimus, Temsirolimus], the “antiviral activity / inhibition” value in data set [3] ([…], concentration not stated) is listed as “Qualitatively similar results to salmeterol”. For the same compound, the “Viral Entry Assay” value in data set [3] (setting [8]) is “Active”.

Turning to `CCCCCCc1ccc(O)cc1O` [hexylresorcinol, Hexylresorcinol], the “Syncytia Assay” value in data set [1] (setting [7]) is given as “Active”. Also, in the data set on HEK293 cells (setting [9]), the “cell loss / cytotoxicity (total GFP)” value was “mirrored by cell loss”.

Regarding `COCCCC/C(=N\OCCN)c1ccc(C(F)(F)F)cc1` [fluvoxamine], in the data set on Covid-19, the “decrease of Covid-19 deaths” value is listed as 90%.
